We go through four compounds from patent publication US8513446B2, “Stable crystal modifications of DOPC” (Merck Patent GmbH, priority 2008, dated 2013).

For data set [1] the following is noted: stored under a protective gas at −20° C.; cited from earlier work.
Data set [2] in a line: Hygroscopicity of solid DOPC. In kind it is physicochemical. An excerpt: In addition, waxy DOPC can only be comminuted with difficulty and, like lyophilised DOPC, can only be weighed out with difficulty. This makes handling of this compound much more difficult.
A short description of data set [3]: Storage stability of crystalline DOPC, residual content by HPLC. It counts as physicochemical. The note with it: exclusion of air. The method, then: In order to determine the stability of crystalline DOPC, the substances are stored together with comparative samples at 25° C. and 60% relative humidity and at 40° C. and 75% relative humidity with exclusion of air. The residual content of DOPC is measured at periodic intervals and indicated compared with the initial value. Purity and content of DOPC are determined by HPLC. For the type I crystal modification, the following values were found: […]

The mark [4] stands for this setting: 25° C./60% relative humidity, storage time 0 months.
Setting [5] is: 25° C./60% relative humidity, storage time 3 months.
[6] abbreviates: 25° C./60% relative humidity, storage time 6 months.
Where [7] appears, read: 25° C./60% relative humidity, storage time 9 months.
Setting [8] is: 25° C./60% relative humidity, storage time 12 months.
Where [9] appears, read: 25° C./60% relative humidity, storage time 18 months.
Where [10] appears, read: 40° C./75% relative humidity, storage time 0 months.
The mark [11] stands for this setting: 40° C./75% relative humidity, storage time 3 months.
Setting [12] is: 40° C./75% relative humidity, storage time 6 months.
Where [13] appears, read: 40° C./75% relative humidity, storage time 9 months.
[14] abbreviates: 40° C./75% relative humidity, storage time 12 months.

Each structure is given as a SMILES string.

For `CCCCCCCC/C=C\CCCCCCCC(=O)OC[C@H](COP(=O)([O-])OCC[N+](C)(C)C)OC(=O)CCCCCCC/C=C\CCCCCCCC` [lyophilised DOPC], the guaranteed shelf life result in data set [1] is “about 12 months”.

As for `CCCCCCCC/C=C\CCCCCCCC(=O)OC[C@H](COP(=O)([O-])OCC[N+](C)(C)C)OC(=O)CCCCCCC/C=C\CCCCCCCC` [amorphous DOPC, reference compound], the hygroscopicity entry in data set [2] is listed as “extremely hygroscopic”.

As to `CCCCCCCC/C=C\CCCCCCCC(=O)OC[C@H](COP(=O)([O-])OCC[N+](C)(C)C)OC(=O)CCCCCCC/C=C\CCCCCCCC` [Crystalline DOPC], the hygroscopicity result in data set [2] is recorded as “improved hygroscopicity”.

Take `CCCCCCCC/C=C\CCCCCCCC(=O)OC[C@H](COP(=O)([O-])OCC[N+](C)(C)C)OC(=O)CCCCCCC/C=C\CCCCCCCC` [type I crystalline (R)-DOPC, 1,2-dioleoyl-sn-glycero-3-phosphocholine]: the “purity of DOPC (HPLC) compared with the initial value” was 100.0 Area-% in data set [3] (setting [4]); 100.0 Area-% in data set [3] (setting [5]); 100.0 Area-% in data set [3] (setting [6]); 100.0 Area-% in data set [3] (setting [7]); 99.7 Area-% in data set [3] (setting [8]); 99.8 Area-% in data set [3] (setting [9]). Besides, the “purity of DOPC (HPLC) compared with the initial value” in data set [3] (setting [10]) is given as 100.0 Area-%; in data set [3] (setting [11]) it was 99.9 Area-%; in data set [3] (setting [12]), 99.8 Area-%; in data set [3] (setting [13]) it was 99.8 Area-%; in data set [3] (setting [14]), 99.7 Area-%. In addition, the “residual content of DOPC compared with the initial value” in data set [3] (setting [4]) is 100.0 % by weight; in data set [3] (setting [5]), 100.9 % by weight; in data set [3] (setting [6]), 99.3 % by weight; in data set [3] (setting [7]), 100.8 % by weight; in data set [3] (setting [8]), 100.4 % by weight; in data set [3] (setting [9]) it was 100.6 % by weight. For the same compound, the “residual content of DOPC compared with the initial value” was 100.0 % by weight in data set [3] (setting [10]); 100.0 % by weight in data set [3] (setting [11]); 98.4 % by weight in data set [3] (setting [12]); 99.8 % by weight in data set [3] (setting [13]); 99.5 % by weight in data set [3] (setting [14]).
